Data from US20090011410A1, “METHOD FOR TAILORING ADMINISTRATION OF DRUGS BY QUANTITATION OF MRNA” (priority 2004, published 2009).

Test system: p21 mRNA
Test: drug-induced p21 mRNA expression in whole blood of healthy adults
Format: cell-based, human
Details: for p21 mRNA expression: healthy leukocytes, 2 hours at 37° C. (FIG. 1); for kinetics of p21 induction / levels of p21 mRNA upon stimulation: 0-8 hours at 37° C., 20 μM BLM
Text: Blood was obtained from healthy adults and from two leukemic non-Hodgkin's malignant lymphoma patients. U937, KG-1, and Jurkat cells were obtained from American Type Culture Collection (ATCC, Manassas, Va.), and maintained in RPMI 1640 supplemented with 10% fetal calf serum. Of these, U937 cells are a human histiocytic lymphoma cell line, KG-1 cells are a human bone marrow myelogenous leukemia cell line, and Jurkat cells are a human T-cell lymphoblast-like, leukemia derived cell line. […] For human experiments, blood aliquots were stimulated with various anti-cancer drugs at 37° C. for 2 hours, then both p21 and BAX mRNA were measured. The anti-cancer drugs used in this study were clinical drugs, and the concentration of each drug was adjusted to typical blood levels 3-6 hours after intravenous administration.
The mRNA and cDNA were prepared from whole blood. In brief, home-made 96-well filterplates were placed over collection plates, and 150 μl 5 mM Tris, pH 7.4, was applied. Following centrifugation at 120×g for 1 min at 4° C., 50 μl of blood samples were applied to each well and immediately centrifuged at 120×g for 2 min at 4° C., followed by washing of each well with 300 μl PBS once with centrifugation at 2000×g for 5 min at 4° C. Then, 60 μl stock lysis buffer, containing for example 0.5% N-Lauroylsarcosine, 4×SSC, 10 mM Tris HCl, pH 7.4, 1 mM EDTA, 0.1% IGEPAL CA-630, and 1.791 M guanidine thiocyanate, supplemented with 1% 2-mercaptoethanol (Bio Rad, Hercules, Calif., USA), 0.5 mg/ml proteinase K (Pierce, Rockford, Ill., USA), 0.1 mg/ml salmon sperm DNA (5 Prime Eppendorf/Brinkmann, Westbury, N.Y., USA), 0.1 mg/ml E. coli tRNA (Sigma), a cocktail of 10 mM each of the specific reverse primers shown in Table 1, and standard RNA34 oligonucleotides, were applied to the filterplates, followed by incubation at 37° C. for 10 min. The filterplates were then placed over oligo(dT)-immobilized microplates (GenePlate, RNAture), and centrifuged at 2000×g for 5 min at 4° C. Following overnight storage at 4° C., the microplates were washed with 100 μl plain lysis buffer 3 times, followed by 150 μl of wash buffer (0.5 M NaCl, 10 mM Tris, pH 7.4, 1 mM EDTA) 3 times at 4° C. The cDNA was directly synthesized in each well by adding 30 μl buffer containing 1× RT-butter, 1.25 mM each of dNTP, 4 units rRNasin, and 80 units of MMLV reverse transcriptase (Promega) (without primers), and incubation at 37° C. for 2 hours. The specific primer-primed cDNA existed in solution, and oligo(dT)-primed cDNA stayed immobilized in the microplate. For TaqMan PCR (FIGS. 1, 3, 4), the resultant 4 μl cDNA solution was directly transferred to 384-well PCR plates, to which 5 μl of TaqMan universal master mix (ABI) and 1 μl oligonucleotide cocktail (15 μM each of forward and reverse primer, and 3-6 μM TaqMan probe) were applied, and PCR was conducted in PRISM 7900HT (ABI), with one cycle of 95° C. for 10 min followed by 45 cycles of 95° C. for 30 sec, 55° C. for 30 sec, and 60° C. for 1 min. For SYBR Green PCR (see FIG. 6), cDNA was diluted 3-4 fold in water, and 4 μl cDNA solution was directly transferred to 384-well PCR plates, to which 5 μl of a master mix (BioRad, Hercules, Calif.) and 1 μl of oligonucleotide cocktail (15 μM each of forward and reverse primer) were applied, and PCR was conducted in PRISM 7900HT (ABI), with one cycle of 95° C. for 10 min followed by 45 cycles of 95° C. for 30 sec and 60° C. for 1 min. Each gene was amplified in separate wells. The Ct was determined by analytical software (SDS, ABI).
In 8-well strip microtubes, 1.4 μl of 50× concentrations of drugs or controls (phosphate buffered saline (PBS) or DMSO) were added, and stored at −20° C. until use. […] Seventy μl of fresh heparinized whole blood was added into each well in triplicate, and incubated at 37° C. for 2-8 hours with the cap closed. For radiation treatment, blood was stimulated at designated doses using cesium-137.

[1] = heparinized whole blood, 100 μM VP-16 (FIG. 5B)

Compound	p21 induction (10 μM VP-16, 2 hours at 37° C. (FIG. 9A))	p21 expression (100 μM VP-16, 2 hours at 37° C. (FIG. 9A))	p21 mRNA expression (10 μM etoposide)	p21 mRNA expression (100 μM etoposide)	kinetics of p21 induction [1]	levels of p21 mRNA upon stimulation [1]	peak of transient p21 induction [1] [h]	concentration at which significant induction of p21 was observed (0-20 μM BLM, 4 hours at 37° C. (FIG. 7))	p21 induction (BLM at concentrations as low as 0.2 μM, 2 hours at 37° C., all cases (FIG. 10A))
COc1cc([C@@H]2c3cc4c(cc3[C@@H](O[C@@H]3O[C@@H]5CO[C@@H](C)O[C@H]5[C@H](O)[C@H]3O)[C@H]3COC(=O)[C@H]23)OCO4)cc(OC)c1O [VP-16, etoposide]	failed to induce p21 in many cases	majority of individuals exhibited increased p21 expression	no significant p21 mRNA expression	expressed significantly	transient induction	significantly increased	2 to 4	–	–
bleomycin [BLM]	–	–	–	–	increased continuously for 8 hours	significantly increased	–	more than 0.1 VM	induced
